Reference: US10815230B2, “Casein kinase 1 delta inhibitor” (ELECTROPHORETICS LIMITED, priority 2015, dated 2020)

How the values were obtained:
[1] = test system: TMHT (Thy-1 Mutated Human Tau) mouse; experiment: In-vivo efficacy, Morris Water Maze in tau transgenic mice; conditions: 30 mg/kg orally for 8 weeks
Text: Various compounds of different classes (among them also antibody treatments) were positively tested for their efficacy in the TMHT model. Published examples are the γ-secretase modulator CHF5074 (Lanzilotta A, et al. The γ-secretase modulator CHF5074 reduces the accumulation of native hyperphosphoxylated tau in a transgenic mouse model of Alzheimer's disease. J Mol Neurosci. 45(1):22--33 (2010)), sodium selenate (Corcoran N M et al. Sodium selenate specifically activates PP2A phosphatase, dephosphorylates tau and reverses memory deficits in an Alzheimer's disease model. J Clin Neurosci. 17(8):1025-33 (2010)) and grape-seed polyphenol extract (Wang J et al. Grape derived polyphenols attenuate tau neuropathology in a mouse model of Alzheimer's disease. […] The effects of the compounds on learning in the Morris Mater Maze (MWM) were evaluated. Blood (plasma) and brain samples were collected after sacrification. Samples collected at sacrifice were plasma, left cortex, left hippocampus, right cortex, right hippocampus, remainder of left brain hemisphere, remainder of right brain hemisphere. In total 48 animals were used and allocated to 4 treatment groups. The start position of the mouse and the position of the platform (FIG. 1) in the different trials of the MWM were as indicated in Table 9: […] A descriptive statistical analysis was performed on all evaluated parameters. All data were represented as mean ±standard error of mean (SEM). MWM learning curve data of three trials per day were averaged. Over a period of 4 days, the ability to find a hidden platform using visual cues was measured performing 3 trials a day. By comparison of the learning curves, the cognitive abilities of the different treatment groups and possible drug effects were evaluated.

ABL2/ARG = ABL2/ARG (Homo sapiens, UniProt P42684); experiment: Kinase selectivity, % remaining activity; format: biochemical; conditions: 10 μM compound, 10 μM ATP, duplicate, read-out: % of remaining activity (relative to DMSO)
Procedure: (§1) A two-tier strategy to determine the selectivity of compound A was applied: first, the compound was tested at a single concentration (in duplicate) to determine the %-remaining activity of the target kinase. Subsequently, the IC50 of compound A and comparative compounds for casein kinase 1 delta were determined.
(§2) Compounds were tested in single dose duplicate mode at a concentration of 10 μM (in DMSO) and reactions were carried out at 10 μM ATP, Table 3 reports the % of remaining activity (relative to DMSO).

ALK5/TGFBR1 = target: T1, ALK5/TGFBR1 (Homo sapiens, UniProt P36897); experiment: Kinase selectivity, % remaining activity; format: biochemical; conditions: 10 μM compound, 10 μM ATP, duplicate, read-out: % of remaining activity (relative to DMSO)
T1 sequence (P36897 34-503): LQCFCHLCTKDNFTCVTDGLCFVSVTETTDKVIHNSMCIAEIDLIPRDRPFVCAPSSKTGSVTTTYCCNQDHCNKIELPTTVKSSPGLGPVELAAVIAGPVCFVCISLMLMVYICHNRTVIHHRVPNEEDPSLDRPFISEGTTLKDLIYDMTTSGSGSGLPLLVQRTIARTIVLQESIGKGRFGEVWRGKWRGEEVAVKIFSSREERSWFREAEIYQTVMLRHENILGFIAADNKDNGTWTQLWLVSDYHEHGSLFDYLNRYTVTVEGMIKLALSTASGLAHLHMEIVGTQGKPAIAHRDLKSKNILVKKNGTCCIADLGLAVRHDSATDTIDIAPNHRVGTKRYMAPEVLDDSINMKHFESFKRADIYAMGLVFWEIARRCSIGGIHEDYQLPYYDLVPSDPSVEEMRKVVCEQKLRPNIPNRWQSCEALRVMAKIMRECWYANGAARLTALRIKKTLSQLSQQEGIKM
Procedure: as §1, §2

CK1e = CK1e (Homo sapiens, UniProt P49674); experiment: Kinase selectivity, % remaining activity; format: biochemical; conditions: 10 μM compound, 10 μM ATP, duplicate, read-out: % of remaining activity (relative to DMSO)
Sequence of CK1e (P49674 whole entry): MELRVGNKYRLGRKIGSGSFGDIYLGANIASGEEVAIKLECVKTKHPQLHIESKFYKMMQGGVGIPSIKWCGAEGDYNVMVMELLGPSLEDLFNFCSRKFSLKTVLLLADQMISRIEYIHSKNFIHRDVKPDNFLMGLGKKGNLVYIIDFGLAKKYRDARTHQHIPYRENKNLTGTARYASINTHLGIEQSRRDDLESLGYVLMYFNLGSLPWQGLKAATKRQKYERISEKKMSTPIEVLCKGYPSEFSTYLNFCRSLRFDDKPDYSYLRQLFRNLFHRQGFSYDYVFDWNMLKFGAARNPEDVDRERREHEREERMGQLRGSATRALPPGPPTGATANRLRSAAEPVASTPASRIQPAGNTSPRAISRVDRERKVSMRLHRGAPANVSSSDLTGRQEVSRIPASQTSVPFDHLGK
Procedure: as §1, §2

CK1g1 = CK1g1 (Homo sapiens, UniProt Q9HCP0); experiment: Kinase selectivity, % remaining activity; format: biochemical; conditions: 10 μM compound, 10 μM ATP, duplicate, read-out: % of remaining activity (relative to DMSO)
Sequence of CK1g1 (Q9HCP0 whole entry): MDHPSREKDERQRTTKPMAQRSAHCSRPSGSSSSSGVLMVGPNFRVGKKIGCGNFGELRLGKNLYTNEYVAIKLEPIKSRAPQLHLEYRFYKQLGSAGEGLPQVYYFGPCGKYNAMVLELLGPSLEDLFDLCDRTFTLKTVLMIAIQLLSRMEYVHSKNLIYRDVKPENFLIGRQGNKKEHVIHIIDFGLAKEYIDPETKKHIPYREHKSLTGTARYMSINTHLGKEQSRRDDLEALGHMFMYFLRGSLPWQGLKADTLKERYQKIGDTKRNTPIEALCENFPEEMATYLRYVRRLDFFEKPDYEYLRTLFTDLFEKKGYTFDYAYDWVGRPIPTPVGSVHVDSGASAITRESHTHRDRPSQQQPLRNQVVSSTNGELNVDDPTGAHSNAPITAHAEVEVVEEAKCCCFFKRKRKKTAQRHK
Procedure: as §1, §2

CK1g2 = CK1g2 (Homo sapiens, UniProt P78368); experiment: Kinase selectivity, % remaining activity; format: biochemical; conditions: 10 μM compound, 10 μM ATP, duplicate, read-out: % of remaining activity (relative to DMSO)
Procedure: as §1, §2

CLK2 = CLK2 (Homo sapiens, UniProt P49760); experiment: Kinase selectivity, % remaining activity; format: biochemical; conditions: 10 μM compound, 10 μM ATP, duplicate, read-out: % of remaining activity (relative to DMSO)
Procedure: as §1, §2

DAPK1 = DAPK1 (Homo sapiens, UniProt P53355); experiment: Kinase selectivity, % remaining activity; format: biochemical; conditions: 10 μM compound, 10 μM ATP, duplicate, read-out: % of remaining activity (relative to DMSO)
Procedure: as §1, §2

EGFR = EGFR (Homo sapiens, UniProt P00533); experiment: Kinase selectivity, % remaining activity; format: biochemical; conditions: 10 μM compound, 10 μM ATP, duplicate, read-out: % of remaining activity (relative to DMSO)
Sequence of EGFR (P00533 25-1210): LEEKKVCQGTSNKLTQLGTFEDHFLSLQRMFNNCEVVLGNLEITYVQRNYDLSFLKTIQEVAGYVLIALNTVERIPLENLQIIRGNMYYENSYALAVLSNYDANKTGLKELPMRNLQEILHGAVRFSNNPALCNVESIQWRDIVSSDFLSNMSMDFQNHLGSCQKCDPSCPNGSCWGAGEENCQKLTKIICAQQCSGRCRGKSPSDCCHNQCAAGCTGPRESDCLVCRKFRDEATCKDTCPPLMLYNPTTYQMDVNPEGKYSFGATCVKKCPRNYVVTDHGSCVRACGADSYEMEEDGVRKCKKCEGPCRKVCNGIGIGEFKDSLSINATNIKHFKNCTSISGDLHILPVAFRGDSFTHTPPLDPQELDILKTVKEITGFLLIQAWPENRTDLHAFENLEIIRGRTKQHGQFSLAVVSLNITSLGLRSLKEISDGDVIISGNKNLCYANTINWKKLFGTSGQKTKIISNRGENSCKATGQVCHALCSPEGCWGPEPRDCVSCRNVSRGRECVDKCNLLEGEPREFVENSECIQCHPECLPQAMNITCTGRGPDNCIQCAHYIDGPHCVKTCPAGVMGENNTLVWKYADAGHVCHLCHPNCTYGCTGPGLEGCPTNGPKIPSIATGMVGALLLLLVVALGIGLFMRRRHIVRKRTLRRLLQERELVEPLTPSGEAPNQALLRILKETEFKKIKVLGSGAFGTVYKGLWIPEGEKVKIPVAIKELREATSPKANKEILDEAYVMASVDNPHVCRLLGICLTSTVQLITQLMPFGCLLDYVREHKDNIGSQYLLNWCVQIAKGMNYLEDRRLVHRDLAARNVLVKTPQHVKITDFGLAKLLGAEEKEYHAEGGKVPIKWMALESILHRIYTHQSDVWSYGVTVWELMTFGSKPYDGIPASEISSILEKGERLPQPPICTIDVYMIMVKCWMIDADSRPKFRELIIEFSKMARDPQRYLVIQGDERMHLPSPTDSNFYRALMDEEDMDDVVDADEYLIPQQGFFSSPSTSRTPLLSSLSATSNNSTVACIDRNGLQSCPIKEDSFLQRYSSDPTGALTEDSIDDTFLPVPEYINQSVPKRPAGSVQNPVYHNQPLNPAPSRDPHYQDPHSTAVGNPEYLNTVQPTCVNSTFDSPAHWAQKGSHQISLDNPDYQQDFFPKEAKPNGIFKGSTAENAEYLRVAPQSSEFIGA
Procedure: as §1, §2

EPHA2 = EPHA2 (Homo sapiens, UniProt P29317); experiment: Kinase selectivity, % remaining activity; format: biochemical; conditions: 10 μM compound, 10 μM ATP, duplicate, read-out: % of remaining activity (relative to DMSO)
Sequence of EPHA2 (P29317 24-976): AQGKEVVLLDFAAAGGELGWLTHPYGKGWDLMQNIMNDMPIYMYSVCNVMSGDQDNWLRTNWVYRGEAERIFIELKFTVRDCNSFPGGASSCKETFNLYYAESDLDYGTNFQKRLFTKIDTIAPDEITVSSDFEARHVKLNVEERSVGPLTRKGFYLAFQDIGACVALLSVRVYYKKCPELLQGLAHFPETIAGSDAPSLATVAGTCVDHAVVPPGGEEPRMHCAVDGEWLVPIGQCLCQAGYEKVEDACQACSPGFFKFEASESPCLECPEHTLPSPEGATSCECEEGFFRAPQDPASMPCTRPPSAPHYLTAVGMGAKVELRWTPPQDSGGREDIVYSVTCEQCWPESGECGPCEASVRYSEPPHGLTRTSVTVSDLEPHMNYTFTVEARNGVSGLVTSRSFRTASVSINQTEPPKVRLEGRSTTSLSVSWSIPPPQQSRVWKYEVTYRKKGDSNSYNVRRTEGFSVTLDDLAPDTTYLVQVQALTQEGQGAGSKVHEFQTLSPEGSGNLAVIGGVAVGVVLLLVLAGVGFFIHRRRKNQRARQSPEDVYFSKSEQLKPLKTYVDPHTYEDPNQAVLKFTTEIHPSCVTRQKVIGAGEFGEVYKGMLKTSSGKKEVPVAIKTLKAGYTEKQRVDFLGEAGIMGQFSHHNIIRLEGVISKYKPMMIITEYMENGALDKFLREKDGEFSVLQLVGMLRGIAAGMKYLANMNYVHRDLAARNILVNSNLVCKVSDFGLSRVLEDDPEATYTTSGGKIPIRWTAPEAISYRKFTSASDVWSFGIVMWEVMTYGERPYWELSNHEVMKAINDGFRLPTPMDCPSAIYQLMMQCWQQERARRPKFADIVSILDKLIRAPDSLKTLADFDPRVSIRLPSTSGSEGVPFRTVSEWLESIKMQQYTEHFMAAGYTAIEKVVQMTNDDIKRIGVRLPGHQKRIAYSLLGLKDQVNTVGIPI
Procedure: as §1, §2

FGFR1 = FGFR1 (Homo sapiens, UniProt P11362); experiment: Kinase selectivity, % remaining activity; format: biochemical; conditions: 10 μM compound, 10 μM ATP, duplicate, read-out: % of remaining activity (relative to DMSO)
Procedure: as §1, §2

GSK3B = GSK3B (Homo sapiens, UniProt P49841); experiment: Kinase selectivity, % remaining activity; format: biochemical; conditions: 10 μM compound, 10 μM ATP, duplicate, read-out: % of remaining activity (relative to DMSO)
Procedure: as §1, §2

LCK = LCK (Homo sapiens, UniProt P06239); experiment: Kinase selectivity, % remaining activity; format: biochemical; conditions: 10 μM compound, 10 μM ATP, duplicate, read-out: % of remaining activity (relative to DMSO)
Procedure: as §1, §2

MSK1/RPS6KA5 = MSK1/RPS6KA5 (Homo sapiens, UniProt O75582); experiment: Kinase selectivity, % remaining activity; format: biochemical; conditions: 10 μM compound, 10 μM ATP, duplicate, read-out: % of remaining activity (relative to DMSO)
Procedure: as §1, §2

PIM3 = PIM3 (Homo sapiens, UniProt Q86V86); experiment: Kinase selectivity, % remaining activity; format: biochemical; conditions: 10 μM compound, 10 μM ATP, duplicate, read-out: % of remaining activity (relative to DMSO)
Procedure: as §1, §2

RIPK2 = RIPK2 (Homo sapiens, UniProt O43353); experiment: Kinase selectivity, % remaining activity; format: biochemical; conditions: 10 μM compound, 10 μM ATP, duplicate, read-out: % of remaining activity (relative to DMSO)
Sequence of RIPK2 (O43353 whole entry): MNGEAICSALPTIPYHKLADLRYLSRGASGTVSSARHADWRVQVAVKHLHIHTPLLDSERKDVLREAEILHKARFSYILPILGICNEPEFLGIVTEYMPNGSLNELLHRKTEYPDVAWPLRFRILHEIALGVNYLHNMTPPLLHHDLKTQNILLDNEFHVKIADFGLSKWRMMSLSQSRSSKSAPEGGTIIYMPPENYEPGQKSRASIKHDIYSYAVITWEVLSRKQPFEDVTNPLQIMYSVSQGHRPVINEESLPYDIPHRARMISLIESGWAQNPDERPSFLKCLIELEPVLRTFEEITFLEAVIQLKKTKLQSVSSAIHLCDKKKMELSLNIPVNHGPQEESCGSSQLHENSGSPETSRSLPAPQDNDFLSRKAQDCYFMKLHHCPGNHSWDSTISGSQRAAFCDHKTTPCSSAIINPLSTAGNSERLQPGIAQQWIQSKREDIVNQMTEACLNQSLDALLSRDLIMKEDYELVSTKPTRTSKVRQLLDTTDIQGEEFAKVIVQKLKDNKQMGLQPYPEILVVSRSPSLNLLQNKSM
Procedure: as §1, §2

ROCK1 = ROCK1 (Homo sapiens, UniProt Q13464); experiment: Kinase selectivity, % remaining activity; format: biochemical; conditions: 10 μM compound, 10 μM ATP, duplicate, read-out: % of remaining activity (relative to DMSO)
Sequence of ROCK1 (Q13464 whole entry): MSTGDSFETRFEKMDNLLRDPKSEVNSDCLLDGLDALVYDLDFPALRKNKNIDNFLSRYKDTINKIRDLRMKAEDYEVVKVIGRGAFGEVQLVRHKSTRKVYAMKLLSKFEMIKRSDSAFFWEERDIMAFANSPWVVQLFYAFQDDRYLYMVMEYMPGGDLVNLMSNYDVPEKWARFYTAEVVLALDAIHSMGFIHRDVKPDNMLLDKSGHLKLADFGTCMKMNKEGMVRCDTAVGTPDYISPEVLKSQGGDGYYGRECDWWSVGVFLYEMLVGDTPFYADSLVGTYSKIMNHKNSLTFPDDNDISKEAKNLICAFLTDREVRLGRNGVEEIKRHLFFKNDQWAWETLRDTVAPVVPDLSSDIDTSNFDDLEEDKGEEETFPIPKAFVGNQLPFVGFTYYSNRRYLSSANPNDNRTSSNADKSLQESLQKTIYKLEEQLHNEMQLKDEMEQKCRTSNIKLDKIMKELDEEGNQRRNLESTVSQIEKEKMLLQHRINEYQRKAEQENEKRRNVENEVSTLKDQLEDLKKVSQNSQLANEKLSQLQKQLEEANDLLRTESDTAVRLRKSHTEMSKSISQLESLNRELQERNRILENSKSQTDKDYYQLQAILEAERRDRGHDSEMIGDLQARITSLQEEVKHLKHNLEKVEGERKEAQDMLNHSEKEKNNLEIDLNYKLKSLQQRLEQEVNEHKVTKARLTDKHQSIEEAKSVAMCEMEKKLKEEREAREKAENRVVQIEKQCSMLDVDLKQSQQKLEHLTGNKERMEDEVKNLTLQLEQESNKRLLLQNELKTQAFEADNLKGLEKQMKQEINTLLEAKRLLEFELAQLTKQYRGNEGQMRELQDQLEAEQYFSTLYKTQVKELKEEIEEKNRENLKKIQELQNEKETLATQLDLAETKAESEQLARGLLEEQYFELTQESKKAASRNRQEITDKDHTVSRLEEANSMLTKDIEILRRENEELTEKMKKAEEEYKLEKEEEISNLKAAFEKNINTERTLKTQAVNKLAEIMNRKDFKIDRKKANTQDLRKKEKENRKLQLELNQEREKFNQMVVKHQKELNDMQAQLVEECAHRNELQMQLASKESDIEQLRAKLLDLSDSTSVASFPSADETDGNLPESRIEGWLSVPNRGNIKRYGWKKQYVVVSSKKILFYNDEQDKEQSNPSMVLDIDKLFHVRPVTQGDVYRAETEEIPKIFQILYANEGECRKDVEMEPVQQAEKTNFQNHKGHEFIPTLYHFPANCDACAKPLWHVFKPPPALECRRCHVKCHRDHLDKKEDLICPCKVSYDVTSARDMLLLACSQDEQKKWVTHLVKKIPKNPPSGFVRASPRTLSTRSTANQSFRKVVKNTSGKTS
Procedure: as §1, §2

TNIK = TNIK (Homo sapiens, UniProt Q9UKE5); experiment: Kinase selectivity, % remaining activity; format: biochemical; conditions: 10 μM compound, 10 μM ATP, duplicate, read-out: % of remaining activity (relative to DMSO)
Procedure: as §1, §2

YES/YES1 = YES/YES1 (Homo sapiens, UniProt P07947); experiment: Kinase selectivity, % remaining activity; format: biochemical; conditions: 10 μM compound, 10 μM ATP, duplicate, read-out: % of remaining activity (relative to DMSO)
Procedure: as §1, §2

c-Src = c-Src (Homo sapiens, UniProt P12931); experiment: Kinase selectivity, % remaining activity; format: biochemical; conditions: 10 μM compound, 10 μM ATP, duplicate, read-out: % of remaining activity (relative to DMSO)
Procedure: as §1, §2

- remaining activity at 10 µM (ABL2/ARG): 68.4%
- remaining activity at 10 µM (ALK5/TGFBR1): 105%
- remaining activity at 10 µM (CK1e): 3%
- remaining activity at 10 µM (CK1g1): 85.1%
- remaining activity at 10 µM (CK1g2): 86%
- remaining activity at 10 µM (CLK2): 105%
- remaining activity at 10 µM (DAPK1): 92.5%
- remaining activity at 10 µM (EGFR): 68.8%
- remaining activity at 10 µM (EPHA2): 39%
- remaining activity at 10 µM (FGFR1): 80.8%
- remaining activity at 10 µM (GSK3B): 114%
- remaining activity at 10 µM (LCK): 19.9%
- remaining activity at 10 µM (MSK1/RPS6KA5): 104%
- remaining activity at 10 µM (PIM3): 116%
- remaining activity at 10 µM (RIPK2): 47.6%
- remaining activity at 10 µM (ROCK1): 95.2%
- remaining activity at 10 µM (TNIK): 89.7%
- remaining activity at 10 µM (YES/YES1): 15.5%
- remaining activity at 10 µM (c-Src): 44%
SMILES: Nc1ncnc2c1c(COc1cccc(Cl)c1)nn2C1CCOCC1 [PF4800567, 3-[(3-Chlorophenoxy)methyl]-1-(tetrahydro-2H-pyran-4-yl)-1H-pyrazolo[3,4-d]pyrimidin-4-amine]
- Escape latency (time to reach the target), Mean ± SEM, Day 1 ([1]; Day 1): 51.1 ± 3.10 s
- Path length to reach the target, Mean ± SEM, Day 1 ([1]; Day 1): 8.00 ± 0.54 meter
- Escape latency (time to reach the target), Mean ± SEM, Day 2 ([1]; Day 2): 50.0 ± 3.49 s
- Path length to reach the target, Mean ± SEM, Day 2 ([1]; Day 2): 7.51 ± 0.56 meter
- Escape latency (time to reach the target), Mean ± SEM, Day 3 ([1]; Day 3): 43.6 ± 3.86 s
- Path length to reach the target, Mean ± SEM, Day 3 ([1]; Day 3): 5.83 ± 0.61 meter
- Escape latency (time to reach the target), Mean ± SEM, Day 4 ([1]; Day 4): 44.0 ± 3.72 s
- Path length to reach the target, Mean ± SEM, Day 4 ([1]; Day 4): 5.70 ± 0.58 meter
